From patent US9238631B2, “Radiolabeled amino acids for diagnostic imaging” (PIRAMAL IMAGING SA, priority 2011, dated 2016)

Legend:
[1] = tested on: NCI-H460 (human NSCLC) cells; assay: In vitro cell-uptake study: blocking of radiolabeled glutamate derivative uptake; assay type: cell-based; conditions: compound 1 mM, 30 minutes, mean ± SD, without compound = 100%
Description: The ability of compounds from the present invention to compete with radiolabeled glutamate derivatives for uptake into tumor cells was examined. NCI-H460 (human NSCLC) cells, grown adherently in 48 well plates were used for these competition-experiments. Approximately 100.000 cells were co-incubated in PBS-buffer containing 0.1% BSA with a radiolabeled Glutamic acid derivative and several compounds, which were used at a concentration of 1 mM for 30 minutes. After this time, the cell bound radioactivity was determined.

[2] = tested on: NCI-H460 tumor; assay: PET imaging in NCI-H460 tumor bearing nude-rats; assay type: in vivo; conditions: PET ROI analysis, 1 h p.i.
Description: c) Beside PET-imaging studies in mice, also the imaging properties of [^18F]-12 in rats were examined. NCI-H460 tumor cells were inoculated into the right flank of nude-rats (RH-Foxn1 nu/nu) 8 to 10 days before the PET study. PET images were acquired at 60 min after injection of approximately 10 MBq for 10 minutes. The H460 tumor was nicely visible (0.9% ID/g as determined by ROI analysis). Beside some minor uptake into the liver and kidneys due to the excretion of the compound, no uptake into other non-target tissues was observed.
To test the imaging properties, compounds from the present invention were evaluated in PET imaging studies using tumor bearing rats. NCI-H460 tumor cells were inoculated into the right flank of nude-rats (RH-Foxn1 nu/nu) 8 to 10 days before the PET study. PET images were acquired at 60 min after injection of approximately 10 MBq for 10 minutes. After the imaging study, region-of-interest (ROI) analysis was performed and activity in tumor, liver and kidney was determined. […] High tumor uptake values of >1% […] in this rat model were obtained with various compounds from the present invention. A favorable clearance profile of all compounds enables excellent tumor detection in PET imaging studies in tumor bearing rats.

[3] = tested on: NCI-H460 tumor; assay: In vivo biodistribution in NCI-H460 tumor bearing mice; conditions: for T/Blood / T/Muscle: 1 h post injection
Description: (§1) To test the pharmacokinetic properties of compounds from the present invention, all F18-labeled compounds were examined by biodistribution studies in NCI-H460 tumor bearing mice. Female NMRI (nu/nu) mice were inoculated with 5×10^6 NCI-H460 tumor cells 8 to 10 days before the biodistribution studies. 185 kBq of activity of the fluorinated compound was injected and at least n=3 mice were used for every time point. After injection of the F18-labeled compound, mice were sacrificed at defined time-points. All organs were removed and radioactivity was determined using a γ-counter.
To compare the tumor uptake and retention of radioactivity of different ^18F-labeled derivatives from the present invention, biodistribution studies were performed in NCI-H460 tumor bearing NMRI (nu/nu) mice as described above.
To compare the kidney clearance of several ^18F-labeled derivatives from the present invention, biodistribution studies were performed in NCI-H460 tumor bearing female NMRI (nu/nu) mice as described above. […] After 2 h p.i., less than 1% ID/g can be found in the kidneys.
For comparison of pancreas uptake and clearance of several ^18F-labeled derivatives from the present invention, biodistribution studies were performed in NCI-H460 tumor bearing NMRI (nu/nu) mice as described above. […] After 2 h p.i., less than 2% ID/g can be found in the pancreas.
as §1, with “and” for “for every time point. After injection of the F18-labeled compound, mice were”, “time-points raning from 15 min pi up to 2 h p.i.” for “time-points.”, “γ-counter. […] High tumor uptake values of >3% ID/g were obtained with various compounds from the present invention.” for “γ-counter.”

Structure (SMILES)	Uptake of radiolabeled glutamate-derivative (% of control) [1]	Kidney (% ID/g at 1 h p.i.) [2]	Liver (% ID/g at 1 h p.i.) [2]	Tumor (Max % ID/g at 1 h p.i.) [2]	Tumor (Mean % ID/g at 1 h p.i.) [2]	Kidney (% ID/g at 1 h p.i.) [3]	Liver (% ID/g at 1 h p.i.) [3]	Pancreas (% ID/g at 1 h p.i.) [3]	Tumor (% ID/g at 1 h p.i.) [3]	Urine (% ID at 1 h p.i.) [3]	T/Blood [3]	T/Muscle [3]
N[C@H](C[C@@H](Cc1ccc(OCCCF)cc1)C(=O)O)C(=O)O [Example 24, (4R)-4-[4-(3-Fluoropropoxy)benzyl]-D-glutamic acid]	36.5 ± 3.8 % of control	–	–	–	–	–	–	–	–	–	–	–
N[C@@H](CC(Cc1ccc(OC(CO)C[18F])cc1)C(=O)O)C(=O)O (stereo partly drawn) [[^18F]-60, 4-(4-{[1-(^18F)fluoro-3-hydroxypropan-2-yl]oxy}benzyl)-L-glutamic acid]	–	2.2 % ID/g	0.9 % ID/g	2.2 % ID/g	1.0 % ID/g	–	–	–	–	–	–	–
N[C@@H](C[C@H](Cc1ccc(OC[18F])cc1)C(=O)O)C(=O)O [[^18F]-48, (4S)-4-{4-[(^18F)fluoromethoxy]benzyl}-L-glutamic acid]	–	0.9 % ID/g	0.2 % ID/g	1.6 % ID/g	0.8 % ID/g	1.8 ± 0.4 % ID/g	0.2 ± 0.08 % ID/g	0.8 ± 0.1 % ID/g	2.8 ± 1.4 % ID/g	79 ± 7.8 % ID	23.3	30.4
N[C@@H](CC(Cc1ccc(OCC[18F])cn1)C(=O)O)C(=O)O (some centres unmarked) [[^18F]-17]	–	2.4 % ID/g	0.9 % ID/g	2.6 % ID/g	1.2 % ID/g	–	–	–	–	–	–	–
N[C@@H](CC(Cc1ccc(OCC[18F])nc1)C(=O)O)C(=O)O (stereo partly drawn) [[^18F]-56, 4-({6-[2-(^18F)fluoroethoxy]pyridin-3-yl}methyl)-L-glutamic acid]	–	–	–	–	–	5.2 ± 1.1 % ID/g	0.7 ± 0.2 % ID/g	0.2 ± 0.03 % ID/g	1.0 ± 0.1 % ID/g	77 ± 6.7 % ID	9.9	25
N[C@@H](CCC(Cc1ccc(OCC[18F])cc1)C(=O)O)C(=O)O (stereo partly drawn) [[^18F]-12 C5-2] [(2S)-2-amino-5-[4-(fluoroethoxy)benzyl]hexanedioic acid]	–	0.4 % ID/g	0.5 % ID/g	3.7 % ID/g	1.6 % ID/g	–	–	–	–	–	–	–
N[C@@H](CCC(Cc1ccc(OC[18F])cc1)C(=O)O)C(=O)O (single isomer, unassigned) [[^18F]-41 C5-1]	–	0.5 % ID/g	0.4 % ID/g	3.2 % ID/g	1.2 % ID/g	3.5 ± 0.7 % ID/g	0.3 ± 0.1 % ID/g	2.2 ± 0.3 % ID/g	6.4 ± 1.4 % ID/g	85.0 ± 7.7 % ID	23.4	94.2
N[C@@H](CCC(Cc1ccc(OCC[18F])cn1)C(=O)O)C(=O)O (stereo partly drawn) [[^18F]-32, (2S)-2-Amino-5-{[5-(2-[^18F]fluoroethoxy)pyridin-2-yl]methyl}hexanedioic acid]	–	–	–	–	–	3.9 ± 1.0 % ID/g	2.3 ± 0.2 % ID/g	0.7 ± 0.1 % ID/g	2.3 ± 0.9 % ID/g	81.0 ± 7.5 % ID	17.9	23.5
N[C@@H](CC(Cc1ccc(OCC[18F])c(O)c1)C(=O)O)C(=O)O (stereo partly drawn) [[^18F]-44, 4-[4-(2-[^18F]fluoroethoxy)-3-hydroxybenzyl]-L-glutamic acid]	–	–	–	–	–	2.5 ± 0.7 % ID/g	0.95 ± 0.1 % ID/g	1.2 ± 0.1 % ID/g	3.3 ± 1.2 % ID/g	80.6 ± 10.1 % ID	28.2	71.1
